Measurements taken from publication doi:10.1101/2022.09.09.507210v3, “The class XIV myosin of Toxoplasma gondii, TgMyoA, is druggable in an animal model of infection” (biorxiv, 2023).
pIC50: −log10 of the molar value.

Biological target: T1, rabbit fast skeletal muscle myosin
T1 construct: gene MYH4; native rabbit fast skeletal myofibrils, full length, with native light chains and thin filaments
Test: myofibril ATPase assay
Format: biochemical, Oryctolagus cuniculus
Details: 75% calcium activation (pCa75); up to 40 μM tested
Source text: myofibril ATPase assay on rabbit fast skeletal muscle myosin
In the case of COc1ccc(C2(NCc3c[nH]nc3-c3cccs3)CC2)cc1 [KNX-002, 1-(4-methoxyphenyl)-N-((3-(thiophen-2-yl)-1H-pyrazol-4-yl)methyl)cyclopropan-1-amine], the pIC50 was < 4.41.

Test system: T2, Toxoplasma gondii RH (tdTomato)
T2 construct: RH
Test: microbe, parasite or virus in culture
Parameters: species or system HFF (host); tdTomato parasite growth in HFF cells, daily fluorescence, IC50 at day 5-6
Details: HFF, read-out: IC50 (D5)
Description: 557 558 Parasite growth assays. Fluorescence-based growth assay. To quantify growth in the presence of compound(s), 1x10^4 559 tachyzoites were preincubated with compound for 5 minutes prior to inoculation onto 560 3 wells of a black sided, clear bottom 384-well plate containing a confluent monolayer of HFF cells. For 561 compound assays, parasites expressing tdTomato were incubated with vehicle or serial dilutions of 562 compound, maintaining a constant DMSO concentration (0.2% v/v). The fluorescent signal was 563 quantified daily for 7 days (ex 530/25, em 590/35) on a Biotek synergy 2 plate reader. The IC50 of growth 564 inhibitory compounds was quantified using GraphPad Prism. Plaque assay. 10, 100, 200, or 500 565 parasites were used to inoculate a confluent monolayer of HFF cells in a 12-well plate and incubated for 566 7 days at 37 °C, 5% CO2. Infected monolayers were then washed with phosphate-buffered saline, fixed 567 with 100% EtOH for five minutes, stained with 5X crystal violet solution (12.5 g crystal violet, 125 ml 568 100% EtOH, 500 ml 1% w/v ammonium oxalate) for 5 minutes, washed with PBS, and allowed to dry.  Figure 3: Preliminary structure-activity relationship (SAR) analysis. […] The table summarizes the activity of each of the compounds in assays measuring recombinant TgMyoA ATPase activity, parasite growth and mammalian cell toxicity; the data on which the table is based are shown in Suppl. Figures 3-5. ATPase assay data correspond to relative luminescence units × 10^−6 (mean from 3 independent replicates +/-SEM) in the presence of 20 μM compound (Suppl. Figure 3). […] Growth assay data correspond to calculated IC50 and 95% confidence interval from a 5-6 day growth assay (Suppl. Figure 4). […] Toxicity assay entries summarize the results from 72-hour CellTox™ Green toxicity and CellTiter-Glo® viability assays on both human foreskin fibroblasts and HepG2 cells. Thresholds for mild and moderate toxicity and loss of viability compared to vehicle (DMSO) controls are indicated by the colored bars on the right hand side of Suppl. […] Fluorescence was measured daily to quantify parasite growth, in the continued presence of compound, over the next 7 days. RFU = relative fluorescence units. The data shown are the mean ± SEM from two independent biological replicates, each consisting of 3 technical replicates at all time points. […] See Figure 5A for a repeat of these growth assays and IC50 calculations. […] Cell viability/growth was measured using Promega CellTiter-Glo® (top panel) and toxicity was measured using Promega CellTox™ green (bottom panel). 0.1% w/v NaN3 served as a positive control for cytotoxicity / growth inhibition. Results are plotted relative to the DMSO controls. Bars show the mean of three independent experiments ± SEM.
COc1ccc(C2(NCc3c[nH]nc3-c3cccs3)CC2)cc1 [KNX-002, 1-(4-methoxyphenyl)-N-((3-(thiophen-2-yl)-1H-pyrazol-4-yl)methyl)cyclopropan-1-amine] gave a pIC50 of 4.83.

Same assay, conditions: HFF, read-out: Parasite Growth IC50
In the case of COc1ccc(C2(NCc3c[nH]nc3-c3cccs3)CC2)cc1 [KNX-002, 1-(4-methoxyphenyl)-N-((3-(thiophen-2-yl)-1H-pyrazol-4-yl)methyl)cyclopropan-1-amine], the pIC50 was 4.71. In the case of c1csc(-c2n[nH]cc2CNC2CC2)c1 [VEST1, N-((3-(thiophen-2-yl)-1H-pyrazol-4-yl)methyl)cyclopropanamine], the pIC50 was < 4.10. With Clc1ccc(C2(NCc3c[nH]nc3-c3cccs3)CC2)cc1 [VEST2, 1-(4-chlorophenyl)-N-((3-(thiophen-2-yl)-1H-pyrazol-4-yl)methyl)cyclopropan-1-amine] the pIC50 was 4.81. Cc1ccc(C2(NCc3c[nH]nc3-c3cccs3)CC2)cc1 [VEST3, N-((3-(thiophen-2-yl)-1H-pyrazol-4-yl)methyl)-1-(p-tolyl)cyclopropan-1-amine] showed a pIC50 of 4.60. Clc1ccc(C2(NCc3c[nH]nc3-c3cccs3)CC2)cc1Cl [VEST4, 1-(3,4-dichlorophenyl)-N-((3-(thiophen-2-yl)-1H-pyrazol-4-yl)methyl)cyclopropan-1-amine] gave a pIC50 of 4.51. Work on c1ccc(C2(NCc3c[nH]nc3-c3cccs3)CC2)cc1 [VEST5, 1-phenyl-N-((3-(thiophen-2-yl)-1H-pyrazol-4-yl)methyl)cyclopropan-1-amine] yielded a pIC50 of 5.00. With COc1ccc(C2(NCc3c[nH]nc3-c3ccccc3)CC2)cc1 [VEST6, 1-(4-methoxyphenyl)-N-((3-phenyl-1H-pyrazol-4-yl)methyl)cyclopropan-1-amine] the pIC50 was 4.60. For COc1ccc(C2(NCc3ccccc3)CC2)cc1 [VEST7, N-benzyl-1-(4-methoxyphenyl)cyclopropan-1-amine], the pIC50 was < 4.10. In the case of COc1ccc(C2(NCc3cncs3)CC2)cc1 [VEST8, 1-(4-methoxyphenyl)-N-(thiazol-5-ylmethyl)cyclopropan-1-amine], the pIC50 was < 4.10. For COc1ccc(C2(NCc3ccoc3)CC2)cc1 [VEST9, N-(furan-3-ylmethyl)-1-(4-methoxyphenyl)cyclopropan-1-amine], the pIC50 was < 4.10. With COc1ccc(C2(NCc3cc[nH]c3)CC2)cc1 [VEST10, N-((1H-pyrrol-3-yl)methyl)-1-(4-methoxyphenyl)cyclopropan-1-amine] the pIC50 was 4.66. In the case of COc1ccc(CNCc2c[nH]nc2-c2cccs2)cc1 [VEST11, N-(4-methoxybenzyl)-1-(3-(thiophen-2-yl)-1H-pyrazol-4-yl)methanamine], the pIC50 was < 4.10. For c1ccc(CNCc2c[nH]nc2-c2cccs2)cc1 [VEST12, N-benzyl-1-(3-(thiophen-2-yl)-1H-pyrazol-4-yl)methanamine], the pIC50 was < 4.10. CC(C)(NCc1c[nH]nc1-c1cccs1)c1ccccc1 [VEST13, 2-phenyl-N-((3-(thiophen-2-yl)-1H-pyrazol-4-yl)methyl)propan-2-amine] showed a pIC50 of 4.57. Work on COc1ccc([C@@H](C)NCc2c[nH]nc2-c2cccs2)cc1 [VEST14, (R)-1-(4-methoxyphenyl)-N-((3-(thiophen-2-yl)-1H-pyrazol-4-yl)methyl)ethan-1-amine] yielded a pIC50 of 4.35. With COc1ccc([C@H](C)NCc2c[nH]nc2-c2cccs2)cc1 [VEST15, (S)-1-(4-methoxyphenyl)-N-((3-(thiophen-2-yl)-1H-pyrazol-4-yl)methyl)ethan-1-amine] the pIC50 was 4.40.

Test system: not listed separately
Test: in vitro
Parameters: species or system HFF
Details: human, hepg2 cells, read-out: HepG2 cells 80 uM
Description: (§1) The table summarizes the activity of each of the compounds in assays measuring recombinant TgMyoA ATPase activity, parasite growth and mammalian cell toxicity; the data on which the table is based are shown in Suppl. Figures 3-5. ATPase assay data correspond to relative luminescence units × 10^−6 (mean from 3 independent replicates +/-SEM) in the presence of 20 μM compound (Suppl. Figure 3). […] Growth assay data correspond to calculated IC50 and 95% confidence interval from a 5-6 day growth assay (Suppl. Figure 4). […] Toxicity assay entries summarize the results from 72-hour CellTox™ Green toxicity and CellTiter-Glo® viability assays on both human foreskin fibroblasts and HepG2 cells. Thresholds for mild and moderate toxicity and loss of viability compared to vehicle (DMSO) controls are indicated by the colored bars on the right hand side of Suppl. […] Fluorescence was measured daily to quantify parasite growth, in the continued presence of compound, over the next 7 days. RFU = relative fluorescence units. The data shown are the mean ± SEM from two independent biological replicates, each consisting of 3 technical replicates at all time points. […] See Figure 5A for a repeat of these growth assays and IC50 calculations. […] Cell viability/growth was measured using Promega CellTiter-Glo® (top panel) and toxicity was measured using Promega CellTox™ green (bottom panel). 0.1% w/v NaN3 served as a positive control for cytotoxicity / growth inhibition. Results are plotted relative to the DMSO controls. Bars show the mean of three independent experiments ± SEM.
With COc1ccc(C2(NCc3c[nH]nc3-c3cccs3)CC2)cc1 [KNX-002, 1-(4-methoxyphenyl)-N-((3-(thiophen-2-yl)-1H-pyrazol-4-yl)methyl)cyclopropan-1-amine] the CC50 at 72 h was > 80 µM. In the case of c1csc(-c2n[nH]cc2CNC2CC2)c1 [VEST1, N-((3-(thiophen-2-yl)-1H-pyrazol-4-yl)methyl)cyclopropanamine], the CC50 at 72 h was > 80 µM. In the case of Clc1ccc(C2(NCc3c[nH]nc3-c3cccs3)CC2)cc1Cl [VEST4, 1-(3,4-dichlorophenyl)-N-((3-(thiophen-2-yl)-1H-pyrazol-4-yl)methyl)cyclopropan-1-amine], the CC50 at 72 h was > 80 µM. With c1ccc(C2(NCc3c[nH]nc3-c3cccs3)CC2)cc1 [VEST5, 1-phenyl-N-((3-(thiophen-2-yl)-1H-pyrazol-4-yl)methyl)cyclopropan-1-amine] the CC50 at 72 h was > 80 µM. With COc1ccc(C2(NCc3c[nH]nc3-c3ccccc3)CC2)cc1 [VEST6, 1-(4-methoxyphenyl)-N-((3-phenyl-1H-pyrazol-4-yl)methyl)cyclopropan-1-amine] the CC50 at 72 h was > 80 µM. For COc1ccc(C2(NCc3ccccc3)CC2)cc1 [VEST7, N-benzyl-1-(4-methoxyphenyl)cyclopropan-1-amine], the CC50 at 72 h was > 80 µM. With COc1ccc(C2(NCc3cncs3)CC2)cc1 [VEST8, 1-(4-methoxyphenyl)-N-(thiazol-5-ylmethyl)cyclopropan-1-amine] the CC50 at 72 h was > 80 µM. With COc1ccc(C2(NCc3ccoc3)CC2)cc1 [VEST9, N-(furan-3-ylmethyl)-1-(4-methoxyphenyl)cyclopropan-1-amine] the CC50 at 72 h was > 80 µM. With COc1ccc(C2(NCc3cc[nH]c3)CC2)cc1 [VEST10, N-((1H-pyrrol-3-yl)methyl)-1-(4-methoxyphenyl)cyclopropan-1-amine] the CC50 at 72 h was > 80 µM. For COc1ccc(CNCc2c[nH]nc2-c2cccs2)cc1 [VEST11, N-(4-methoxybenzyl)-1-(3-(thiophen-2-yl)-1H-pyrazol-4-yl)methanamine], the CC50 at 72 h was > 80 µM. For c1ccc(CNCc2c[nH]nc2-c2cccs2)cc1 [VEST12, N-benzyl-1-(3-(thiophen-2-yl)-1H-pyrazol-4-yl)methanamine], the CC50 at 72 h was > 80 µM. In the case of CC(C)(NCc1c[nH]nc1-c1cccs1)c1ccccc1 [VEST13, 2-phenyl-N-((3-(thiophen-2-yl)-1H-pyrazol-4-yl)methyl)propan-2-amine], the CC50 at 72 h was > 80 µM. In the case of COc1ccc([C@@H](C)NCc2c[nH]nc2-c2cccs2)cc1 [VEST14, (R)-1-(4-methoxyphenyl)-N-((3-(thiophen-2-yl)-1H-pyrazol-4-yl)methyl)ethan-1-amine], the CC50 at 72 h was > 80 µM. In the case of COc1ccc([C@H](C)NCc2c[nH]nc2-c2cccs2)cc1 [VEST15, (S)-1-(4-methoxyphenyl)-N-((3-(thiophen-2-yl)-1H-pyrazol-4-yl)methyl)ethan-1-amine], the CC50 at 72 h was > 80 µM.

Test system: not listed separately
Test: in vitro
Parameters: species or system HepG2
Details: human, hff cells, read-out: HFF cells 80 uM
Description: as §1
With COc1ccc(C2(NCc3c[nH]nc3-c3cccs3)CC2)cc1 [KNX-002, 1-(4-methoxyphenyl)-N-((3-(thiophen-2-yl)-1H-pyrazol-4-yl)methyl)cyclopropan-1-amine] the CC50 at 72 h was > 80 µM. With c1csc(-c2n[nH]cc2CNC2CC2)c1 [VEST1, N-((3-(thiophen-2-yl)-1H-pyrazol-4-yl)methyl)cyclopropanamine] the CC50 at 72 h was > 80 µM. In the case of Clc1ccc(C2(NCc3c[nH]nc3-c3cccs3)CC2)cc1Cl [VEST4, 1-(3,4-dichlorophenyl)-N-((3-(thiophen-2-yl)-1H-pyrazol-4-yl)methyl)cyclopropan-1-amine], the CC50 at 72 h was > 80 µM. For c1ccc(C2(NCc3c[nH]nc3-c3cccs3)CC2)cc1 [VEST5, 1-phenyl-N-((3-(thiophen-2-yl)-1H-pyrazol-4-yl)methyl)cyclopropan-1-amine], the CC50 at 72 h was > 80 µM. With COc1ccc(C2(NCc3c[nH]nc3-c3ccccc3)CC2)cc1 [VEST6, 1-(4-methoxyphenyl)-N-((3-phenyl-1H-pyrazol-4-yl)methyl)cyclopropan-1-amine] the CC50 at 72 h was > 80 µM. In the case of COc1ccc(C2(NCc3ccccc3)CC2)cc1 [VEST7, N-benzyl-1-(4-methoxyphenyl)cyclopropan-1-amine], the CC50 at 72 h was > 80 µM. For COc1ccc(C2(NCc3cncs3)CC2)cc1 [VEST8, 1-(4-methoxyphenyl)-N-(thiazol-5-ylmethyl)cyclopropan-1-amine], the CC50 at 72 h was > 80 µM. With COc1ccc(C2(NCc3ccoc3)CC2)cc1 [VEST9, N-(furan-3-ylmethyl)-1-(4-methoxyphenyl)cyclopropan-1-amine] the CC50 at 72 h was > 80 µM. In the case of COc1ccc(C2(NCc3cc[nH]c3)CC2)cc1 [VEST10, N-((1H-pyrrol-3-yl)methyl)-1-(4-methoxyphenyl)cyclopropan-1-amine], the CC50 at 72 h was > 80 µM. With COc1ccc(CNCc2c[nH]nc2-c2cccs2)cc1 [VEST11, N-(4-methoxybenzyl)-1-(3-(thiophen-2-yl)-1H-pyrazol-4-yl)methanamine] the CC50 at 72 h was > 80 µM.
